Entries after “also recorded” stand apart in the source; their conditions may differ.
Tests used:
[1] = Endotoxin binding: competitive displacement of BODIPY TR-Cadaverine from LTA; parameters: species or system Staphylococcus aureus; settings: 5 μM peptide; for LTA binding (BC displacement), in words: 10 μM BC, 10 μg/mL LTA, 10 mM Na-PO4; for higher degree of LTA binding than parent peptide: vs ATRA-1 / ATRA1-R3W2
Experimental: (§1) FIGS. 2A-2B are graphs showing endotoxin binding. The figures depict the competitive displacement of BC from LPS/LTA by the peptides. 5 μM of each peptide was incubated with 10 μM BC and 10 μg/mL LPS from E. coli (0111:B4) or LTA from S. aureus. Fluorescence intensity was measured at excitation=580 nm and emission=620 nm. 10 μM BC without endotoxin was used as 100% displacement while 10 μM BC with 10 μg/mL LPS/LTA without any peptide as 0% displacement and the % displacement of BC by each peptide was calculated accordingly. […] had been used as a positive control. The horizontal dotted line coincides with the % displacement of BC by ATRA1 on the y-axis.
(§2) FIGS. 6A-6B are graphs showing endotoxin (LPS (FIG. 6A) and LTA (FIG. 6B)) binding. Competitive displacement of BC from LPS/LTA. In each case, 5 μM peptide was incubated with 10 μM BC and 10 μg/mL LPS from E. coli (0111:B4) or LTA from S. aureus. Fluorescence intensity was measured using excitation=580 nm and emission=620 nm. As a positive control 10 μM BC without endotoxin was used as a reference for 100% displacement while 10 μM BC with 10 μg/mL LPS/LTA without any peptide as a negative control and a reference for 0% displacement. These controls were used to calculate % BC displacement for each peptide.
(§3) Endotoxin Binding. The binding of endotoxin (LPS/LTA) was evaluated using a fluorogenic conjugateBODIPY TR-Cadaverine (BC). BC binds endotoxin loses its fluorescence. The peptide competitively displaces BC from endotoxin and the fluorescence is reestablished. Competitive inhibition of endotoxin-BC binding was utilized due to presence of peptides already in complexion with endotoxin. 25 μL of 20 μM of peptides in 10 mM Na—PO4 buffer were incubated with 25 μL of LPS (40 μg/mL) or LTA (40 μg/mL) for 15 min and then added with 50 μL of BC (20 uM). Peptides bind to LPS or LTA and competitively prevents BC bind to the endotoxin. BC loses its fluorescence on binding to endotoxin. The fluorescence intensity of the unbound BC was measured at excitation=580 nm and emission=620 nm.
(§4) BC contains two functional moieties: BODIPY (boron-dipyrromethene) and cadaverine connected via a carboxamide. BODIPY is the fluorophore of BC and fluoresces in the free state in solution but loses fluorescence when bound to LPS/LTA. The competitive displacement of BC from LPS/LTA by AMPs and thus regeneration of the fluorescence has frequently been used to estimate the binding strength of AMPs with LPS/LTA. In the present studies, 5 μM of each peptide was used to displace BC from LPS/LTA. […] Such observation contradicts the initial assumption that substitution of Lys with arginine would result in increased efficiency of LPS binding. However, with sequential substitutions of Lys with arginine, starting with ATRA1-AR, peptide variants show increased LPS binding with each additional arginine substitution. In terms of LPS binding: ATRA1-AR<ATRA1-AR2<ATRA1-AR3. In ATRA1-R3, the lysine residues at 9th, 5th and 1st positions of ATRA1 were substituted with arginine. In ATRA1-R6 all of the lysine residues were replaced with arginine.

[2] = Endotoxin binding: competitive displacement of BODIPY TR-Cadaverine from LPS; parameters: species or system Escherichia coli; settings: 5 μM peptide; for LPS binding (BC displacement), in words: 10 μM BC, 10 μg/mL LPS, low ionic-strength 10 mM Na-PO4; for increase in affinity for LPS compared to the peptide lacking the hydrophobic tail: vs ATRA1 / ATRA1-R3W2
Experimental: as §1, §2, §3, §4

[3] = tested on: E. coli ML35p outer membrane; test: Outer membrane disruption (β-lactamase leakage, nitrocefin); type: cell-based, Escherichia coli; settings: for outer membrane disruption (β-lactamase activity) relative to HCMAB / time to reach maximum signal for nitrocefin hydrolysis: DPBS
Experimental: Interactions with Bacterial Membranes. Interaction of the peptides with bacterial membranes in different phosphate buffers were evaluated using E. coli ML35p, constructed in our laboratory. At first, competent cells of E. coli ML35 were produced by conventional competent cell preparation method, then transformed with pBR322 plasmid. Transformed colonies were selected after growing on Luria-agar containing 50 μg/mL ampicillin. A single transformed colony was grown in presence of ampicillin first in Luria broth and then in MHBII and stored as 20% glycerol stock at −80° C. This frozen stock, on the day of the experiment, was thawed and grown in MHBII containing ampicillin up to OD600 nm=0.8-0.9, washed with PBS and then suspended in the respective buffer up to the required OD600 nm for use.
Membrane Disruptions. The outer and the inner membrane disruptions by the peptides were evaluated by incubating bacterial suspension with peptides and then measuring the activity of enzymes leaked out of the cells. 100 μL of 10× concentration of peptide in water was incubated with 900 μL bacterial suspension (OD600 nm˜0.1) in respective buffer for 3 hours at room temperature with gentle rotation. Then the cells and debris were separated by centrifugation (10000 r.p.m. for 30 mins) and the supernatant was collected and tested for activity of enzymes that had leaked out of the bacterial cells. HCMAB was used as a positive control to cause 100% membrane disruption and water as a negative causing 0% disruption.
The outer membrane disruption was tested by using the activity of beta-lactamase present in the periplasmic space of E. coli ML35p. Peptides when disrupt the outer membrane enough to cause beta-lactamase to come out, the degree of disruption can be measured by the virtue of the kinetics of the enzyme and using a chromogenic cephalosporin substrate called nitrocefin. β-lactamase mediated hydrolyzed product of nitrocefin has an absorbance αmax=486 nm. Supernatant collected from the incubation of peptide with bacteria was added with nitrocefin solution in DPBS and incubated at 35° C. and continuous absorbance readings. The slope of the linear section of the absorbance curve (absorbance vs time), was used as a measure of membrane disruption and the % Disruption was calculated as: Equation 7: […]
Some of the ATRA1-variants were further tested for their ability to disrupt outer and inner membranes to form pores or disruptions sufficiently large so as to allow enzymes to leak out of their cellular compartments (cytoplasm or periplasmic space). For this purpose, two reporter molecules were used with one being the substrate of a cytoplasmic enzyme and the other was a substrate for an enzyme residing in the periplasmic space. One of the reporters, nitrocefin was the substrate for β-lactamase, which is present in the bacterial periplasm, whereas the other molecule, ONPG, was the substrate for β-galactosidase, which resides in the cytoplasm of E. coli ML35p strain. […] Similarly, β-galactosidase activity in the supernatants is evidence of inner membrane disruption and possible pore formation. When the aforesaid supernatants were tested for nitrocefin and ONPG hydrolysis, the corresponding absorbance increased with time (data not shown) indicating β-lactamase and β-galactosidase activity, respectively, and thus disruption of both the inner and outer membranes. The slopes of the increase in absorbance as a function of time provides the rate of enzyme activity. The enzyme activities in supernatants collected after incubation of bacteria with the quaternary ammonium surfactant, hexadecyltrimethylammonium bromide (HCMAB) was used as an internal reference for 100% membrane disruption. Enzyme activity for supernatants collected for cells incubated in the absence of peptide provided a reference for 0% membrane disruption. Bee venom peptide melittin was used as a positive control. […]

KRAKKFFKKLK (SEQ ID NO: 4) [ATRA1-A]
LTA binding (BC displacement), in words [1]: significantly lower LTA binding than ATRA1 | LPS binding (BC displacement), in words [2]: decreased LPS binding relative to ATRA1

KRAKKFFKRLK (SEQ ID NO: 6) [ATRA1-AR]
LPS binding (BC displacement), in words [2]: lowest LPS binding of all of the peptides tested

KRFKKFFKKLK (SEQ ID NO: 2) [ATRA1, first 11 residues of NA-CATH]
outer membrane disruption relative to HCMAB ([3]; 10 mM phosphate buffer, HCMAB = 100%): higher degree of disruption than ATRA1-R3W2

KRFKKFFKKLKGGVIGVTFPF (SEQ ID NO: 38) [ATRA1-HYD, ATRA1 with hydrophobic tail of NA-CATH joined at the C-terminus by a short -GG- segment]
higher degree of LTA binding than parent peptide [1]: ~2 fold | increase in affinity for LPS compared to the peptide lacking the hydrophobic tail [2]: ~2 fold

KRFKKFFKKLKNSVKKRAKKFFKKPK (SEQ ID NO: 53) [NA-CATH26, first 26 residues of NA-CATH]
outer membrane disruption (β-lactamase activity) relative to HCMAB ([3]; HCMAB = 100%): significantly lower degrees of β-lactamase leakage | LTA binding (BC displacement), in words [1]: bound LTA to a significantly lower degree than NA-CATH | decrease in affinity for LPS relative to NA-CATH ([2]; deletion of hydrophobic tail): ~30%

KRWKKWWKKWK (SEQ ID NO: 14) [ATRA1-W4]
time to reach maximum signal for nitrocefin hydrolysis [3]: approximately 30 mins | LPS binding (BC displacement), in words [2]: higher efficacy to bind LPS than the parent ATRA1

RRFKRFFKRLK (SEQ ID NO: 9) [ATRA1-R3]
outer membrane disruption (β-lactamase activity) relative to HCMAB ([3]; HCMAB = 100%): in between those observed for ATRA1 and ATRA1-F | LPS binding (BC displacement), in words [2]: higher LPS binding than ATRA1

RRFRRFFRRLR (SEQ ID NO: 10) [ATRA1-R6]
time to reach maximum signal for nitrocefin hydrolysis [3]: approximately 30 mins | LPS binding (BC displacement), in words [2]: bound LPS more effectively than ATRA1-R3

RRWKRFFKRWK (SEQ ID NO: 15) [ATRA1-R3W2]
time to reach maximum signal for nitrocefin hydrolysis [3]: approximately 30 mins | outer membrane disruption (β-lactamase activity) relative to HCMAB ([3]; HCMAB = 100%): Higher outer membrane disruption | outer membrane disruption (β-lactamase activity) relative to HCMAB ([3]; HCMAB = 100%, listed as ATRA-R3W2): approximately 4% | LTA binding (BC displacement), in words [1]: far effective than ATRA1 in binding LTA | LPS binding (BC displacement), in words [2]: more effective in LPS binding than either of ATRA1-R3 and ATRA1-W2; also recorded: binds LPS marginally greater than ATRA1

RRWKRFFKRWKGGVIGVTFPF (SEQ ID NO: 50) [ATRA1-R3W2-HYD, ATRA1-R3W2 with hydrophobic tail of NA-CATH joined by -GG-]
outer membrane disruption (β-lactamase activity) relative to HCMAB ([3]; HCMAB = 100%): 160% | higher degree of LTA binding than parent peptide [1]: ~2 fold | LPS binding (BC displacement), in words [2]: binds LPS with similar affinity as ATRA1-HYD | increase in affinity for LPS compared to the peptide lacking the hydrophobic tail [2]: ~2 fold
